Experimental data from patent publication US11053253B2, “Macrocyclic compounds for treatment of medical disorders” (Achillion Pharmaceuticals, Inc., priority 2017, dated 2021).

These compounds were tested against Human Factor D (Homo sapiens (Human), UniProt P00746) (assay: Human Factor D Assay). Settings: Human Factor D 80 nM, substrate Z-L-Lys-SBzl, DTNB, A405; read-out: IC50 (Stars).
Sequence of Human Factor D (P00746 26-253): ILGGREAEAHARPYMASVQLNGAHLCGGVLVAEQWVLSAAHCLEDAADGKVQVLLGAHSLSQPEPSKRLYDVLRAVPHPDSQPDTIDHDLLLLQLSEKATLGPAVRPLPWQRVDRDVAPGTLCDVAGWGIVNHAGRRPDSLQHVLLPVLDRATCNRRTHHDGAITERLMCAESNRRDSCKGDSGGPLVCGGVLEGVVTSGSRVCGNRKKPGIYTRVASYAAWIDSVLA
Type: biochemical
Experimental: Example 2. Human Factor D Assay
Human Factor D (purified from human serum, Complement Technology, Inc.) at 80 nM final concentration is incubated with test compound at various concentrations for 5 min at room temperature in 50 mM Tris, 1M NaCl, pH 7.5. A synthetic substrate Z-L-Lys-SBzl and DTNB (Ellman's reagent) are added to final concentrations of 100 µM each. Absorbance at 405 nm (A405) is recorded at 30 second intervals for 30 minutes using a microplate spectrophotometer. IC50 values are calculated by nonlinear regression of Complement Factor D reaction rates as a function of test compound concentration.
With `CC(=O)c1nn(CC(=O)N2C3CC34COCC=CCOCc3ccc(Br)nc3NC(=O)[C@@H]2C4)c2ccc(-c3cnc(C)nc3)cc12` (stereo partly drawn) [Compound T-1, (43S)-44-(2-(3-acetyl-5-(2-methylpyrimidin-5-yl)-1H-indazol-1-yl)acetyl)-16-bromo-6,11-dioxa-44,2-diaza-1(2,3)-pyridina-4(3,1)-bicyclo[3.1.0]hexanacyclododecaphan-8-en-3-one] the IC50 was less than 1000 nM.
`CC(=O)c1nn(CC(=O)N2C3CC34CNC(=O)CCC=CCOCc3ccc(Br)nc3NC(=O)[C@@H]2C4)c2ccc(-c3cnc(C)nc3)cc12` (stereo partly drawn) [Compound T-2, (43S)-44-(2-(3-acetyl-5-(2-methylpyrimidin-5-yl)-1H-indazol-1-yl)acetyl)-16-bromo-13-oxa-44,2,6-triaza-1(2,3)-pyridina-4(3,1)-bicyclo[3.1.0]hexanacyclotetradecaphan-10-ene-3,7-dione] showed an IC50 of less than 1000 nM.
Compound `CC(=O)c1nn(CC(=O)N2[C@H]3C[C@@]4(COCC=CCOCc5ccc(Br)nc5NC3=O)C[C@@H]24)c2ccc(-c3cnc(C)nc3)cc12` [Compound T-3, (41R,43S,45S)-42-(2-(3-acetyl-5-(2-methylpyrimidin-5-yl)-1H-indazol-1-yl)acetyl)-16-bromo-6,11-dioxa-42,2-diaza-1(2,3)-pyridina-4(3,5)-bicyclo[3.1.0]hexanacyclododecaphan-8-en-3-one] has an IC50 of less than 1000 nM.
Compound `CC(=O)c1nn(CC(=O)N2[C@H]3C[C@@]4(COCCCCOCc5ccc(Br)nc5NC3=O)C[C@@H]24)c2ccc(-c3cnc(C)nc3)cc12` [Compound T-4, (41R,43S,45S)-42-(2-(3-acetyl-5-(2-methylpyrimidin-5-yl)-1H-indazol-1-yl)acetyl)-16-bromo-6,11-dioxa-42,2-diaza-1(2,3)-pyridina-4(3,5)-bicyclo[3.1.0]hexanacyclododecaphan-3-one] has an IC50 of less than 1000 nM.
With `CC(=O)c1nn(CC(=O)N2[C@H]3C[C@@]4(COCC=CCOCc5cccnc5NC3=O)C[C@@H]24)c2ccc(-c3cnc(C)nc3)cc12` [Compound T-5, (41R,43S,45S)-42-(2-(3-acetyl-5-(2-methylpyrimidin-5-yl)-1H-indazol-1-yl)acetyl)-6,11-dioxa-42,2-diaza-1(2,3)-pyridina-4(3,5)-bicyclo[3.1.0]hexanacyclododecaphan-8-en-3-one] the IC50 was less than 1000 nM.
Work on `CC(=O)c1nn(CC(=O)N2[C@H]3C[C@]4(C[C@@H]24)CN(C)CC=CCOCc2ccc(Br)nc2NC3=O)c2ccc(-c3cnc(C)nc3)cc12` [Compound T-6, (41R,43S,45R)-42-(2-(3-acetyl-5-(2-methylpyrimidin-5-yl)-1H-indazol-1-yl)acetyl)-16-bromo-6-methyl-11-oxa-42,2,6-triaza-1(2,3)-pyridina-4(3,5)-bicyclo[3.1.0]hexanacyclododecaphan-8-en-3-one] yielded an IC50 of less than 1000 nM.
In the case of `CC(=O)c1nn(CC(=O)N2[C@H]3C[C@]4(C[C@@H]24)CN(C)CCCCOCc2ccc(Br)nc2NC3=O)c2ccc(-c3cnc(C)nc3)cc12` [Compound T-7, (41R,43S,45R)-42-(2-(3-acetyl-5-(2-methylpyrimidin-5-yl)-1H-indazol-1-yl)acetyl)-16-bromo-6-methyl-11-oxa-42,2,6-triaza-1(2,3)-pyridina-4(3,5)-bicyclo[3.1.0]hexanacyclododecaphan-3-one], the IC50 is reported as less than 1000 nM.
`CC(=O)c1nn(CC(=O)N2[C@H]3C[C@]4(C[C@@H]24)CN(C)CCCCC=Cc2ccc(Br)nc2NC3=O)c2ccc(-c3cnc(C)nc3)cc12` [Compound T-8, (41R,43S,45R)-42-(2-(3-acetyl-5-(2-methylpyrimidin-5-yl)-1H-indazol-1-yl)acetyl)-16-bromo-6-methyl-42,2,6-triaza-1(2,3)-pyridina-4(3,5)-bicyclo[3.1.0]hexanacyclododecaphan-11-en-3-one] showed an IC50 of less than 1000 nM.
